Key:
Assay type in all cases: in vivo
[1] = system: CYPIR (Cyperus iria L., rice flatsedge); assay: Postemergence foliar-applied herbicidal mixtures, direct seeded rice, greenhouse (Example I)
[2] = system: LAMPU (Lamium purpureum (L.), purple deadnettle); assay: Postemergence foliar-applied herbicidal mixtures, cereal crops, greenhouse (Example III); settings: Compound A Benzyl Ester 8.75 gai/ha, visual score 0 to 100 percent after 20-22 days
Description: (§1) Seeds of the desired test plant species were planted in Sun Gro MetroMix® 306 planting mixture, which typically has a pH of 6.0 to 6.8 and an organic matter content of about 30 percent, in plastic pots with a surface area of 103.2 square centimeters (cm^2). […] The plants were grown for 7-36 days in a greenhouse with an approximate 14 hour photoperiod which was maintained at about 18° C. during the day and about 17° C. during the night. Nutrients and water were added on a regular basis and supplemental lighting was provided with overhead metal halide 1000-Watt lamps as necessary. The plants were employed for testing when they reached the second or third true leaf stage.
(§2) Treatments consisted of the benzyl ester of 4-amino-3-chloro-5-fluoro-6-(4-chloro-2-fluoro-3-methoxy-phenyl)pyridine-2-carboxylic acid (Compound A), formulated as an SC, a second cereal herbicide alone and then both in combination.
(§3) Other herbicidal components were applied on an active ingredient basis and included acetolactate synthase (ALS)-inhibiting herbicides (sulfonamide chemical class) florasulam formulated as Derby® and pyroxsulam formulated as PowerFlex®. A measured aliquot of benzyl ester of 4-amino-3-chloro-5-fluoro-6-(4-chloro-2-fluoro-3-methoxy-phenyl)pyridine-2-carboxylic acid (Compound A) was placed in 25 milliliter (mL) glass vials and diluted in a volume of 1.25% (v/v) AgriDex® crop oil concentrated to obtain a stock solution. Compound requirements are based upon a 12 mL application volume at a rate of 187 liters per hectare (L/ha). […] Formulated compounds were applied to the plant material with an overhead Mandel track sprayer equipped with an 8002E nozzle calibrated to deliver 187 L/ha over an application area of 0.503 square meters (m^2) at a spray height of 18 inches (46 cm) above average plant canopy. Control plants were sprayed in the same manner with the solvent blank.
(§4) The treated plants and control plants were placed in a greenhouse as described above and watered by sub-irrigation to prevent wash-off of the test compounds. After 20-22 days, the condition of the test plants as compared with that of the control plants was determined visually and scored on a scale of 0 to 100 percent where 0 corresponds to no injury and 100 corresponds to complete kill.
(§5) Colby's equation was used to determine the herbicidal effects expected from the mixtures (Colby, S. R. 1967. Calculation of the synergistic and antagonistic response of herbicide combinations. Weeds 15:20-22.).
(§6) The following equation was used to calculate the expected activity of mixtures containing two active ingredients, A and B: Expected=A+B−(A×B/100)

[3] = system: SASKR (Salsola iberica (L.), Russian thistle); assay: as above; settings: Compound A Benzyl Ester 5 gai/ha, visual score 0 to 100 percent after 20-22 days
Description: as §1, §2, §3, §4, §5, §6

[4] = system: VERPE (Veronica persica Poir., bird's-eye speedwell); assay: as above; settings: visual score 0 to 100 percent after 20-22 days
Description: as §1, §2, §3, §4, §5, §6

[5] = system: CIRAR (Cirsium arvense (L.) Scop., Canada thistle); assay: as above
Description: as §1, §2, §3, §4, §5, §6

[6] = system: MATCH (Chamomilla chamomilla (L.) Rydb., scented mayweed); assay: as above; settings: Compound A Benzyl Ester 5 gai/ha, visual score 0 to 100 percent after 20-22 days
Description: as §1, §2, §3, §4, §5, §6

[7] = system: VIOTR (Viola tricolor (L.), wild pansy); assay: as above; settings: Compound A Benzyl Ester 5 gai/ha, visual score 0 to 100 percent after 20-22 days
Description: as §1, §2, §3, §4, §5, §6

COc1c(Cl)ccc(-c2nc(C(=O)OCc3ccccc3)c(Cl)c(N)c2F)c1F [Compound A Benzyl Ester, benzyl ester of 4-amino-3-chloro-5-fluoro-6-(4-chloro-2-fluoro-3-methoxy-phenyl)pyridine-2-carboxylic acid]
Visual Weed Control (%) - 20 DAA CYPIR Obs ([1]; Compound A Benzyl Ester 4.38 gae/ha): 15%
Visual Weed Control (%) - 22 DAA CYPIR Obs ([1]; Compound A Benzyl Ester 8 gae/ha): 20%
Visual Weed Control (%) - 20 DAA CYPIR Obs ([1]; Compound A Benzyl Ester 8.75 gae/ha): 60%
Visual Weed Control (%) - 22 DAA CYPIR Obs ([1]; Compound A Benzyl Ester 16 gae/ha): 85%
Visual Weed Control (%) - 20 DAA CYPIR Obs ([1]; Compound A Benzyl Ester 17.5 gae/ha): 90%
LAMPU Obs [2]: 83%
SASKR Obs [3]: 57%
VERPE Obs ([4]; Compound A Benzyl Ester 5 gai/ha): 37%
VERPE Obs ([4]; Compound A Benzyl Ester 8.75 gai/ha): 50%
CIRAR Obs ([5]; Compound A Benzyl Ester 5 gai/ha, visual score 0 to 100 percent after 20-22 days): 40%
CIRAR Obs ([5]; Compound A Benzyl Ester 8.75 gai/ha, visual score after 20-22 days, Table 17): 40%
CIRAR Obs ([5]; Compound A Benzyl Ester 8.75 gai/ha, visual score after 20-22 days, Table 18): 40%
MATCH Obs [6]: 13%
VIOTR Obs [7]: 13%

Source: patent US8906825B2, “Herbicidal compositions comprising 4-amino-3-chloro-5-fluoro-6-(4-chloro-2-fluoro-3-methoxyphenyl) pyridine-2-carboxylic acid or a derivative thereof and triazolopyrimidine sulfonamides” (Dow AgroSciences LLC, priority 2012, dated 2014)
